Reference: PMC6792352, “Limited Chemical Structural Diversity Found to Modulate Thyroid Hormone Receptor in the Tox21 Chemical Library” (Environmental Health Perspectives, 2019)
Counter-ions that a name gives are not always drawn. Like-named read-outs stand apart in the source and are kept apart here.

Assays:
in vitro = details: rat, gh3-tre-luc cells, AC50 (uM) modified / 1000
GH3-TRE-Luc cell line = details: read-out: AC50 (uM) modified / 1000, viability, 1 nM T3 present, 24 h

CC(C)Oc1cc(-n2nc(C(C)(C)C)oc2=O)c(Cl)cc1Cl [Oxadiazon]
CC50 at 24 h (in vitro): 50.6 µM
CC50 (GH3-TRE-Luc cell line; Tox21_110001=Tox21_300668): 74.7 µM

CCc1cc(C(C)(C)C)c(O)c(C(C)(C)C)c1 [2,6-Di-tert-butyl-4-ethylphenol]
CC50 at 24 h (in vitro): 72.5 µM
CC50 (GH3-TRE-Luc cell line; Tox21_110001=Tox21_303397): 85.5 µM

CCOc1cc(Oc2ccc(C(F)(F)F)cc2Cl)ccc1[N+](=O)[O-] [Oxyfluorfen]
CC50 at 24 h (in vitro): 79.3 µM
CC50 (GH3-TRE-Luc cell line; Tox21_110001=Tox21_300827): 50 µM

CCCCCCCCCCCCCC[P+](CCCC)(CCCC)CCCC [Tributyltetradecylphosphonium chloride]
CC50 at 24 h (in vitro): 2.96 µM
CC50 (GH3-TRE-Luc cell line; Tox21_110001=Tox21_303556): 3.3 µM

C#CCOS(=O)OC1CCCCC1Oc1ccc(C(C)(C)C)cc1 (stereo not shown) [Propargite]
CC50 at 24 h (in vitro): 5.83 µM
CC50 (GH3-TRE-Luc cell line; Tox21_110001=Tox21_300805): 7.01 µM

C=CCOC(Cn1ccnc1)c1ccc(Cl)cc1Cl (stereo not shown) [Imazalil]
CC50 at 24 h (in vitro): 53.5 µM
CC50 (GH3-TRE-Luc cell line; Tox21_110001=Tox21_300720): 79.9 µM

O=P(OC(CCl)CCl)(OC(CCl)CCl)OC(CCl)CCl [Tris(1,3-dichloro-2-propyl) phosphate]
CC50 at 24 h (in vitro): 61.2 µM
CC50 (GH3-TRE-Luc cell line; Tox21_110001=Tox21_300194): 36.6 µM

COC(=O)C1=C(C)NC(C)=C(C(=O)OCC(C)C)C1c1ccccc1[N+](=O)[O-] (stereo not shown) [Nisoldipine]
CC50 at 24 h (in vitro): 51.4 µM
CC50 (GH3-TRE-Luc cell line; Tox21_110001=Tox21_112251): 37.2 µM

O=[N+]([O-])c1cc(N(CCO)CCO)ccc1NCCO [HC Blue 2]
CC50 at 24 h (in vitro): > 90 µM
CC50 (GH3-TRE-Luc cell line; Tox21_110001=Tox21_302947): 91.6 µM

C=C1CC[C@H](O)C/C1=C/C=C1\CCC[C@]2(C)[C@@H]([C@H](C)CCCC(C)C)CC[C@@H]12 [Vitamin D3]
CC50 at 24 h (in vitro): 44.3 µM
CC50 (GH3-TRE-Luc cell line; Tox21_110001=Tox21_111578): 24.3 µM

CC(CN1c2ccccc2Sc2ccccc21)N(C)C (stereo not shown) [Promethazine hydrochloride]
CC50 at 24 h (in vitro): 12.2 µM
CC50 (GH3-TRE-Luc cell line; Tox21_110001=Tox21_302878): 23 µM

Cc1ccc(N)c(N)c1 [3,4-Diaminotoluene]
CC50 at 24 h (in vitro): 32.1 µM
CC50 (GH3-TRE-Luc cell line; Tox21_110001=Tox21_300507): 18.4 µM

O=c1n(CC2CO2)c(=O)n(CC2CO2)c(=O)n1CC1CO1 (stereo not shown) [Triglycidyl isocyanurate]
CC50 at 24 h (in vitro): 27.2 µM
CC50 (GH3-TRE-Luc cell line; Tox21_110001=Tox21_111097): 26.2 µM
CC50 (GH3-TRE-Luc cell line; Tox21_110001=Tox21_300119): 33.9 µM

CCCCCCCCCCCCOC(=O)c1cc(O)c(O)c(O)c1 [Lauryl gallate]
CC50 at 24 h (in vitro): 2.89 µM
CC50 (GH3-TRE-Luc cell line; Tox21_110001=Tox21_303487): 3.66 µM

CCCCCCCCCCCC[N+](C)(C)CCOc1ccccc1 [Domiphen bromide]
CC50 at 24 h (in vitro): 10.6 µM
CC50 (GH3-TRE-Luc cell line; Tox21_110001=Tox21_111054): 12.4 µM

CC1=C(/C=C/C(C)=C/C=C/C(C)=C/C(=O)Nc2ccc(O)cc2)C(C)(C)CCC1 [4-Hydroxyphenyl retinamide]
CC50 at 24 h (in vitro): 10 µM
CC50 (GH3-TRE-Luc cell line; Tox21_110001=Tox21_111007): 6.39 µM

C#C[C@]1(OC(C)=O)CC[C@H]2[C@@H]3CCC4=C[C@@H](OC(C)=O)CC[C@@H]4[C@H]3CC[C@@]21C [Ethynodiol diacetate]
CC50 at 24 h (in vitro): 45 µM
CC50 (GH3-TRE-Luc cell line; Tox21_110001=Tox21_112924): 44.6 µM

O=C(Nc1cccc(C(F)(F)F)c1)c1cc(Br)cc(Br)c1O [Fluorosalan]
CC50 at 24 h (in vitro): 2.69 µM
CC50 (GH3-TRE-Luc cell line; Tox21_110001=Tox21_112749): 3.92 µM

Oc1ccc(C(c2ccc(O)cc2)(C(F)(F)F)C(F)(F)F)cc1 [Bisphenol AF]
CC50 at 24 h (in vitro): 32.9 µM
CC50 (GH3-TRE-Luc cell line; Tox21_110001=Tox21_303641): 54.4 µM

CCCCC(CC)COC(=O)c1ccc(O)cc1 (stereo not shown) [2-Ethylhexylparaben]
CC50 at 24 h (in vitro): 32.1 µM
CC50 (GH3-TRE-Luc cell line; Tox21_110001=Tox21_302793): 41.7 µM

CC1CC(OC(=O)c2ccccc2O)CC(C)(C)C1 (stereo not shown) [3,3,5-Trimethylcyclohexyl salicylate]
CC50 (GH3-TRE-Luc cell line; Tox21_110001=Tox21_111174): 42.4 µM
CC50 (GH3-TRE-Luc cell line; Tox21_110001=Tox21_303082): 72.7 µM

CN(C)CCCN1c2ccccc2CCc2ccccc21 [Imipramine]
CC50 (GH3-TRE-Luc cell line; Tox21_110001=Tox21_110174): 9.04 µM
CC50 (GH3-TRE-Luc cell line; Tox21_110001=Tox21_301417): 19.5 µM

c1cnc2c(c1)ccc1cccnc12 [1,10-Phenanthroline]
CC50 (GH3-TRE-Luc cell line; Tox21_110001=Tox21_201998): 46.4 µM
CC50 (GH3-TRE-Luc cell line; Tox21_110001=Tox21_303111): 66.2 µM

COC(=O)[C@H]1[C@H]2C[C@@H]3c4[nH]c5ccccc5c4CCN3C[C@H]2C[C@@H](OC(=O)c2cc(OC)c(OC)c(OC)c2)[C@@H]1OC [Deserpidine]
CC50 (GH3-TRE-Luc cell line; Tox21_110001=Tox21_112646): 1.94 µM
CC50 (GH3-TRE-Luc cell line; Tox21_110001=Tox21_113102): 27.7 µM

COc1cc([C@@H]2c3cc4c(cc3[C@H](O)[C@H]3COC(=O)[C@H]23)OCO4)cc(OC)c1OC [Podofilox]
CC50 (GH3-TRE-Luc cell line; Tox21_110001=Tox21_202922): 0.0227 µM

O=C1OC2(c3ccccc31)c1cc(Br)c(O)c(Br)c1Oc1c2cc(Br)c(O)c1Br [Eosin]
CC50 (GH3-TRE-Luc cell line; Tox21_110001=Tox21_112323): 9.05 µM
CC50 (GH3-TRE-Luc cell line; Tox21_110001=Tox21_302152): 8.28 µM

CCCCCCCCCCCCn1cc[n+](C)c1 [1-Dodecyl-3-methylimidazolium trifluoromethanesulfonate]
CC50 (GH3-TRE-Luc cell line; Tox21_110001=Tox21_202630): 3.74 µM

Nc1ccn([C@@H]2O[C@H](CO)[C@@H](O)[C@@H]2O)c(=O)n1 [Cytarabine]
CC50 (GH3-TRE-Luc cell line; Tox21_110001=Tox21_111203): 0.708 µM
CC50 (GH3-TRE-Luc cell line; Tox21_110001=Tox21_301971): 0.237 µM

CCN(CC)C(=S)S [Sodium diethyldithiocarbamate trihydrate]
CC50 (GH3-TRE-Luc cell line; Tox21_110001=Tox21_302812): 8.88 µM

CC/C(=C(\c1ccc(O)cc1)c1ccc(OCCN(C)C)cc1)c1ccccc1 [4-Hydroxytamoxifen]
CC50 (GH3-TRE-Luc cell line; Tox21_110001=Tox21_303657): 2.62 µM

COC(=O)Nc1nc2ccccc2[nH]1 [Carbendazim]
CC50 (GH3-TRE-Luc cell line; Tox21_110001=Tox21_300478): 11.4 µM

CN(C)CCC=C1c2ccccc2CCc2ccccc21 [Amitriptyline hydrochloride]
CC50 (GH3-TRE-Luc cell line; Tox21_110001=Tox21_113122): 18.1 µM
CC50 (GH3-TRE-Luc cell line; Tox21_110001=Tox21_201278): 8.86 µM
CC50 (GH3-TRE-Luc cell line; Tox21_110001=Tox21_303612): 13.7 µM

O=C(c1ccc(OCCN2CCCCC2)cc1)c1c(-c2ccc(O)cc2)sc2cc(O)ccc12 [Raloxifene hydrochloride]
CC50 (GH3-TRE-Luc cell line; Tox21_110001=Tox21_110255): 5.6 µM
CC50 (GH3-TRE-Luc cell line; Tox21_110001=Tox21_302369): 2.98 µM

N=C(N)c1ccc(OCCCCCOc2ccc(C(=N)N)cc2)cc1 [Pentamidine isethionate]
CC50 (GH3-TRE-Luc cell line; Tox21_110001=Tox21_110742): 23.4 µM
CC50 (GH3-TRE-Luc cell line; Tox21_110001=Tox21_201722): 63.5 µM
CC50 (GH3-TRE-Luc cell line; Tox21_110001=Tox21_300312): 41 µM

COc1cc2c(c(OC)c1OC)-c1c(cc3c(c1OC)OCO3)C[C@H](C)[C@](C)(O)C2 [Gomisin A]
CC50 (GH3-TRE-Luc cell line; Tox21_110001=Tox21_113433): 22.9 µM
